Results as given in US7678818B2, “Anthranilamide and 2-amino-heteroarene-carboxamide compounds” (Hoffmann-La Roche Inc., priority 2006, dated 2010).

Target: T1, cholesteryl ester transfer protein (CETP) from human lipoprotein-deprived serum (LPDS) (Homo sapiens, UniProt P11597)
T1 construct: the source of CETP was human lipoprotein-deprived serum (LPDS); from tissue; host or cells: human lipoprotein-deprived serum (LPDS)
T1 sequence (P11597 18-493): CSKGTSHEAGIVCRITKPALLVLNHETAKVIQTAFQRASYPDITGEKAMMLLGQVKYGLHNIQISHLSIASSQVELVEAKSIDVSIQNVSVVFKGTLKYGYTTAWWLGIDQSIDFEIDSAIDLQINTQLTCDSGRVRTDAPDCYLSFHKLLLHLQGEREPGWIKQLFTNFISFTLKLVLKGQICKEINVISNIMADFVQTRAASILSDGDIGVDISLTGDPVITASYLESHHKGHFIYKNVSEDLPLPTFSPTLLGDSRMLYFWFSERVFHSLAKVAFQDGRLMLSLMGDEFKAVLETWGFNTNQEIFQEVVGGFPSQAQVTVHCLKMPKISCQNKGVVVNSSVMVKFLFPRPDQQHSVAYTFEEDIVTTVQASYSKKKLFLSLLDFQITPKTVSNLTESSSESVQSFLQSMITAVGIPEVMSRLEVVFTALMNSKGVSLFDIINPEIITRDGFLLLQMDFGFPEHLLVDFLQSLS
Assay: CETP inhibition in the presence of plasma (SPA assay, CETP source human lipoprotein-deprived serum)
Assay type: biochemical
Protocol: Activity of CETP inhibitors was determined using a buffer assay system. Partially purified CETP transferred radiolabeled cholesteryl ester from HDL donor particles to biotin-labeled LDL acceptor particles. The reaction was stopped by addition of streptavidin-coupled scintillation proximity assay (SPA) beads. These beads captured the biotinylated acceptor particles and transferred radioactivity was measured. The assay system was purchased and performed according to manufacturer's recommendations (Amersham Biosciences). Inhibitory activity of compounds was determined as percentage of positive control activity containing CETP together with donor and acceptor particles. Serial dilution of compounds was performed in order to determine the IC50 values.
Activity of the compounds was subsequently measured in the presence of plasma using the same assay as described above except that the source of CETP was human lipoprotein-deprived serum (LPDS). Inhibitory activity of compounds was determined as percentage of positive control activity containing all the assay components except compound. Serial dilution of compounds was performed in order to determine the IC50 values.

IC50 [µM]	Structure (SMILES)
30	CC(C)(C)c1ccc(CN(CCc2cccc(C(F)(F)F)c2)C(=O)c2cccnc2N)cc1 [Compound 13.63, 2-Amino-N-(4-tert-butyl-benzyl)-N-[2-(3-trifluoromethyl-phenyl)-ethyl]-nicotinamide]
5.61	CCC(=O)Nc1ccc(Cl)c(Cl)c1C(=O)N(CCc1cccc(C(F)(F)F)c1)Cc1ccc(C(C)(C)C)cc1 [Compound 13.230, N-(4-tert-Butyl-benzyl)-2,3-dichloro-6-propionylamino-N-[2-(3-trifluoromethyl-phenyl)-ethyl]-benzamide]
0.295	CNc1c(Cl)ccc(F)c1C(=O)N(CCc1cccc(C(F)(F)F)c1)Cc1ccc(C(C)(C)C)cc1 [Compound 13.254, N-(4-tert-Butyl-benzyl)-3-chloro-6-fluoro-2-methylamino-N-[2-(3-trifluoromethyl-phenyl)-ethyl]-benzamide]
